Measured values as given in patent US20150282488A1, “COMPOSITIONS AND METHODS FOR CONTROLLING PLANT-PARASITE NEMATODE” (BAYER CROPSCIENCE LP, priority 2012, published 2015).

Tested on: R. reniformis
Assay: Greenhouse trial with treated cotton seeds in autoclaved soil
Format: in vivo, Rotlyenchulus reniformis
Conditions: seed treatment 500 g ai/100 kg
Excerpt: Anti-nematodal activity is understood as meaning any activity useful in controlling or killing nematodes, such as reducing nematode egg hatching or paralyzing juveniles of nematodes. Testing for anti-nematodal activity is done both in-vitro and in-vivo through laboratory and greenhouse procedures. In-vitro testing can involve testing eggs and/or juvenile nematodes in selective media in small 96-well plates and measurements done by microscopic evaluations. Proper control treatments would be combined to monitor and compare activity. Under greenhouse studoes soil was autoclaved using two 90 minute cycles at 130° C. at […] pressure with a 24 hour cool down between cycles to remove any natural competition for the microflora. The vermiform stages were extracted from the soil by the modified gravity screening and sucrose centrifugation-flotation. Eggs stages were extracted from cotton roots by shaking the root system in a 1% NaOCl solution for four minutes at 120 rpm. The nematode suspension was collected and rinsed with water through a 25 μm sieve. Females in roots were stained with acid fuschin to facilitate enumeration of the females invading the root. Variables measured included plant height, shoot and root weights, females and eggs per gram of root, and the number of vermiform life stages in soil. […]
Rotlyenchulus reniformis vermiform life stages were extracted from the soil by modified gravity screening and sucrose centrifugation-flotation. […] Vermiform life stages and eggs were counted under an inverted TS 100 Nikon microscope at 40× magnification. Females embedded in the root systems were quantified at 5× magnification utilizing the Nikon SMZ800 […] microscope. Variables measured were plant height, shoot and root weight, females and eggs per gram of root, and the number of vermiform life stages in 500 cm^3 of soil. […] Data were analyzed in SAS 9.1 (SAS Institute Inc.). The distributional assumption was evaluated with the student panel graphs of the GLIMMIX procedure. […]

O=[N+]([O-])NC1=NCCN1Cc1ccc(Cl)nc1 [imidacloprid]
effect on R. reniformis life stages: did not have any effect | effect on cotton plant growth: did not have any effect | nematicidal activity: did not show any nematicidal activity
